Source: patent publication US10428051B2 (priority 2015, dated 2019)
Where two headings read alike, the source gives them in different places.

Molecular target: human σ1 receptor (Homo sapiens, UniProt Q99720)
Test: biochemical
Assay type: binding
Design: μ and σ1 dual (binding to the σ1 receptor and the μ-opioid receptor expressed as Ki): key to the marks not given beside the values

human σ1 receptor, sequence (Q99720 whole entry): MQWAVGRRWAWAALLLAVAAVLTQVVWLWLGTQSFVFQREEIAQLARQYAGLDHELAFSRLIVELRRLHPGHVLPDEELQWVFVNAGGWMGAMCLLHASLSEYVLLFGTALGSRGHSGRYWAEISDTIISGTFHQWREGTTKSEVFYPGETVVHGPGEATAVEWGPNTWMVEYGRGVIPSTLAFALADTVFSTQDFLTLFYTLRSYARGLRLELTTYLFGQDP

SMILES	Ki	also measured
CCC(=O)N(CC1(N2CCN(CCOC(C)C)CC2)CCOC(C)(C)C1)c1ncccc1F (stereo not shown) [Example 167, N-(3-fluoropyridin-2-yl)-N-((4-(4-(2-isopropoxyethyl)piperazin-1-yl)-2,2-dimethyltetrahydro-2H-pyran-4-yl)methyl)propionamide]	< 500 nM	–
CCC(=O)N(CC(C)(C)N1CCN(CC(C)C)CC1)c1ncccc1F [Example 74, N-(3-fluoropyridin-2-yl)-N-(2-(4-isobutylpiperazin-1-yl)-2-methylpropyl)propionamide]	–	μ and σ1 dual (binding to the σ1 receptor and the μ-opioid receptor expressed as Ki): ++
CCC(=O)N(CC1(N2CCN(CCC(C)C)CC2)CC1)c1cccc(C(F)(F)F)n1 [Example 124, N-((1-(4-isopentylpiperazin-1-yl)cyclopropyl)methyl)-N-(6-(trifluoromethyl)pyridin-2-yl)propionamide]	< 100 nM	–
CC(C)(CN(C(=O)c1ccco1)c1ccccc1)N1CCN(CCc2ccccc2)CC1 [Example 44, N-(2-methyl-2-(4-phenethylpiperazin-1-yl)propyl)-N-phenylfuran-2-carboxamide]	< 100 nM	–
CCC(=O)N(CC1(N2CCN(Cc3cccc(F)c3)CC2)CC1)c1ccccc1 [Example 116, N-((1-(4-(3-fluorobenzyl)piperazin-1-yl)cyclopropyl)methyl)-N-phenylpropionamide]	< 100 nM	–
CCC(=O)N(CC1(N2CCN(CCC(C)C)CC2)CCOC(C)(C)C1)c1ccccn1 (stereo not shown) [Example 164, N-((4-(4-isopentylpiperazin-1-yl)-2,2-dimethyltetrahydro-2H-pyran-4-yl)methyl)-N-(pyridin-2-yl)propionamide]	–	μ and σ1 dual (binding to the σ1 receptor and the μ-opioid receptor expressed as Ki): ++
CCOCCN1CCN(C2(CN(C(=O)CC)c3cccc(C#N)n3)CCOC(C)(C)C2)CC1 (stereo not shown) [Example 171, N-(6-cyanopyridin-2-yl)-N-((4-(4-(2-ethoxyethyl)piperazin-1-yl)-2,2-dimethyltetrahydro-2H-pyran-4-yl)methyl)propionamide]	> 500 nM	–
CCC(=O)N(CC1(N2CCN(Cc3ccccn3)CC2)CC1)c1ccccc1 [Example 114, N-phenyl-N-((1-(4-(pyridin-2-ylmethyl)piperazin-1-yl)cyclopropyl)methyl)propionamide]	< 500 nM	–
CCC(=O)N(CC1(N2CCN(CCC(C)C)CC2)CCOC(C)(C)C1)c1ncccc1F (stereo not shown) [Example 168, N-(3-fluoropyridin-2-yl)-N-((4-(4-isopentylpiperazin-1-yl)-2,2-dimethyltetrahydro-2H-pyran-4-yl)methyl)propionamide]	–	μ and σ1 dual (binding to the σ1 receptor and the μ-opioid receptor expressed as Ki): ++
CCC(=O)N(CC1(N2CCN(CCC(C)C)CC2)CCOCC1)c1ncccc1F [Example 155, N-(3-fluoropyridin-2-yl)-N-((4-(4-isopentylpiperazin-1-yl)tetrahydro-2H-pyran-4-yl)methyl)propionamide]	< 500 nM	–
CN1CCC(CN(C(=O)c2nccs2)c2ccccc2)(N2CCN(Cc3ccccc3)CC2)CC1 [Example 41, N-((4-(4-benzylpiperazin-1-yl)-1-methylpiperidin-4-yl)methyl)-N-phenylthiazole-2-carboxamide]	–	Ki (combined class for both Ki-σ1 (assay A1) and Ki-μ (assay A2), human receptors, radioligand binding, read-out: μ and σ1 dual (binding to the σ1 receptor and the μ-opioid receptor expressed as Ki)): > 500 nM
CCC(=O)N(CC1(N2CCN(CC(C)C)CC2)CCOC(C)(C)C1)c1ncccc1F (stereo not shown) [Example 170, N-(3-fluoropyridin-2-yl)-N-((4-(4-isobutylpiperazin-1-yl)-2,2-dimethyltetrahydro-2H-pyran-4-yl)methyl)propionamide]	–	μ and σ1 dual (binding to the σ1 receptor and the μ-opioid receptor expressed as Ki): ++
CCC(=O)N(CC1(N2CCN(CCOC(C)C)CC2)CCOC2(CCCC2)C1)c1cccc(C(F)(F)F)n1 (stereo not shown) [Example 174, N-((9-(4-(2-isopropoxyethyl)piperazin-1-yl)-6-oxaspiro[4.5]decan-9-yl)methyl)-N-(6-(trifluoromethyl)pyridin-2-yl)propionamide]	< 500 nM	–
CCC(=O)N(CC1(N2CCN(CC(C)C)CC2)CCOCC1)c1ncccc1C(F)(F)F [Example 63, N-((4-(4-isobutylpiperazin-1-yl)tetrahydro-2H-pyran-4-yl)methyl)-N-(3-(trifluoromethyl)pyridin-2-yl)propionamide]	–	μ and σ1 dual (binding to the σ1 receptor and the μ-opioid receptor expressed as Ki): ++
CCC(=O)N(CC1(N2CCN(CCOC(C)C)CC2)CCOCC1)c1ncccc1F [Example 157, N-(3-fluoropyridin-2-yl)-N-((4-(4-(2-isopropoxyethyl)piperazin-1-yl)tetrahydro-2H-pyran-4-yl)methyl)propionamide]	< 500 nM	–
CCC(=O)N(CC1(N2CCN(C(C(=O)OC)c3ccccc3)CC2)CCOCC1)c1ccccn1 (stereo not shown) [Example 180, methyl 2-phenyl-2-(4-(4-((N-(pyridin-2-yl)propionamido)methyl)tetrahydro-2H-pyran-4-yl)piperazin-1-yl)acetate]	> 500 nM	–
CCC(=O)N(CC1(N2CCN(CCc3ncccc3F)CC2)CCOCC1)c1cccc(C(F)(F)F)n1 [Example 192, N-((4-(4-(2-(3-Fluoropyridin-2-yl)ethyl)piperazin-1-yl)tetrahydro-2H-pyran-4-yl)methyl)-N-(6-(trifluoromethyl)pyridin-2-yl)propionamide]	–	μ and σ1 dual (binding to the σ1 receptor and the μ-opioid receptor expressed as Ki): ++

SMILES	Ki	also measured
CCC(=O)N(CC1(N2CCN(Cc3ccccc3)CC2)CCOCC1)c1ccncc1 [Example 12, N-((4-(4-benzylpiperazin-1-yl)tetrahydro-2H-pyran-4-yl)methyl)-N-(pyridin-4-yl)propionamide]	> 500 nM	–
CCC(=O)N(CC1(N2CCN(CC(C)C)CC2)CCOCC1)c1ccccn1 [Example 151, N-((4-(4-isobutylpiperazin-1-yl)tetrahydro-2H-pyran-4-yl)methyl)-N-(pyridin-2-yl)propionamide]	> 500 nM	–
CCC(=O)N(CC1(N2CCN(CC(C)C)CC2)CCOC(C)(C)C1)c1cccc(C#N)n1 (stereo not shown) [Example 87, N-(6-cyanopyridin-2-yl)-N-((4-(4-isobutylpiperazin-1-yl)-2,2-dimethyltetrahydro-2H-pyran-4-yl)methyl)propionamide]	> 500 nM	–
CCC(=O)N(CC1(N2CCN(CCOC(C)C)CC2)CCOC(C)(C)C1)c1ccccn1 (stereo not shown) [Example 163, N-((4-(4-(2-isopropoxyethyl)piperazin-1-yl)-2,2-dimethyltetrahydro-2H-pyran-4-yl)methyl)-N-(pyridin-2-yl)propionamide]	> 500 nM	–
CCNC(=O)N(CC(C)(C)N1CCN(Cc2ccccc2)CC1)c1ccccc1 [Example 48, 1-(2-(4-benzylpiperazin-1-yl)-2-methylpropyl)-3-ethyl-1-phenylurea]	–	μ and σ1 dual (binding to the σ1 receptor and the μ-opioid receptor expressed as Ki): ++
CCC(=O)N(CC1(N2CCN(Cc3ccccc3)CC2)CCOCC1)c1ccc(F)c(C#N)n1 [Example 61, N-((4-(4-benzylpiperazin-1-yl)tetrahydro-2H-pyran-4-yl)methyl)-N-(6-cyano-5-fluoropyridin-2-yl)propionamide]	< 500 nM	–
CCC(=O)N(CC1(N2CCN(Cc3ccccc3)CC2)CCOCC1)c1ccccc1O [Example 54, N-((4-(4-benzylpiperazin-1-yl)tetrahydro-2H-pyran-4-yl)methyl)-N-(2-hydroxyphenyl)propionamide]	< 500 nM	–
CCC(=O)N(CC1(N2CCN(Cc3ccccc3)CC2)CCOC(C)(C)C1)c1ccccn1 (stereo not shown) [Example 16, N-((4-(4-benzylpiperazin-1-yl)-2,2-dimethyltetrahydro-2H-pyran-4-yl)methyl)-N-(pyridin-2-yl)propionamide]	< 500 nM	–
CCC(=O)N(CC1(N2CCN(Cc3ccc(F)c(F)c3)CC2)CCOCC1)c1ccccc1 [Example 108, N-((4-(4-(3,4-difluorobenzyl)piperazin-1-yl)tetrahydro-2H-pyran-4-yl)methyl)-N-phenylpropionamide]	< 500 nM	–
CCOCCN1CCN(C2(CN(C(=O)CC)c3ccccn3)CCOC(C)(C)C2)CC1 (stereo not shown) [Example 165, N-((4-(4-(2-ethoxyethyl)piperazin-1-yl)-2,2-dimethyltetrahydro-2H-pyran-4-yl)methyl)-N-(pyridin-2-yl)propionamide]	> 500 nM	–
CCOCCN1CCN(C2(CN(C(=O)CC)c3cccc(C(F)(F)F)n3)CCC2)CC1 [Example 202, N-((1-(4-(2-ethoxyethyl)piperazin-1-yl)cyclobutyl)methyl)-N-(6-(trifluoromethyl)pyridin-2-yl)propionamide]	< 500 nM	–
CCC(=O)N(CC1(N2CCN(Cc3ccccc3)CC2)CC1)c1cccc(C#N)n1 [Example 97, N-((1-(4-benzylpiperazin-1-yl)cyclopropyl)methyl)-N-(6-cyanopyridin-2-yl)propionamide]	< 500 nM	–
CCC(=O)N(CC1(N2CCN(Cc3ccccc3)CC2)CCOCC1)c1nc(C(F)(F)F)ccc1C#N [Example 60, N-((4-(4-benzylpiperazin-1-yl)tetrahydro-2H-pyran-4-yl)methyl)-N-(3-cyano-6-(trifluoromethyl)pyridin-2-yl)propionamide]	< 500 nM	–
CCC(=O)N(CC1(N2CCN(C(C)COC)CC2)CCOCC1)c1cccc(C(F)(F)F)n1 (stereo not shown) [Example 112, N-((4-(4-(1-methoxypropan-2-yl)piperazin-1-yl)tetrahydro-2H-pyran-4-yl)methyl)-N-(6-(trifluoromethyl)pyridin-2-yl)propionamide]	–	μ and σ1 dual (binding to the σ1 receptor and the μ-opioid receptor expressed as Ki): ++
CCOCCN1CCC(C2(CN(C(=O)CC)c3cccc(C(F)(F)F)n3)CCOCC2)CC1 [Example 177, N-((4-(1-(2-ethoxyethyl)piperidin-4-yl)tetrahydro-2H-pyran-4-yl)methyl)-N-(6-(trifluoromethyl)pyridin-2-yl)propionamide]	< 500 nM	–
CCOCCN1CCN(C2(CN(C(=O)CC)c3ncccc3F)CCOC(C)(C)C2)CC1 (stereo not shown) [Example 169, N-((4-(4-(2-ethoxyethyl)piperazin-1-yl)-2,2-dimethyltetrahydro-2H-pyran-4-yl)methyl)-N-(3-fluoropyridin-2-yl)propionamide]	> 500 nM	–
COCC(=O)N(CC1(N2CCN(Cc3ccccc3)CC2)CCOCC1)c1ccccc1 [Example 37, N-((4-(4-benzylpiperazin-1-yl)tetrahydro-2H-pyran-4-yl)methyl)-2-methoxy-N-phenylacetamide]	< 500 nM	–
